Test results from US7713994B2 (Wyeth LLC, priority 2005, dated 2010).
Values joined by “and” are separate entries in the source; they are usually repeats but may differ in a detail not shown here. Equal values may be shown once. Read-outs that look alike come from different tables or passages of the source.

What was measured:
[1] = I.V. and P.O. Dosing in Mice; assay type: in vivo; conditions: for AUC(0-inf) / bioavailability: mouse, in vivo; for bioavailability: po 50 mg/kg vs i.v. 2 mg/kg
LoVo = assay: Cytotoxicity assay (SRB), LoVo; assay type: cell-based; conditions: Homo sapiens, LoVo, 72 h, read-out: In Vitro Cellular Activity IC50 LOVO
Method in brief: (§1)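 BT474 (12000 cells/well) was treated for 6 days, whereas HCT-116 (4000), LoVo (6000) and MCF-7 (6000) were treated for 3 days, all in RPMI 1640 containing 5% FBS. Surviving-cell percentage came from SRB dye binding measured at 540 nm.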

BT474 = assay: Cytotoxicity assay (SRB), BT474; assay type: cell-based; conditions: Homo sapiens, BT-474, 144 h, read-out: In Vitro Cellular Activity IC50 BT474
Method in brief: as §1

cyclin B/CDK1 enzyme = target: T1, cyclin B/CDK1 enzyme (Homo sapiens, UniProt P06493); assay: CDK1 ELISA kinase assay (phospho-Rb ser 795 detection); assay type: biochemical
T1 construct: purchased New England BioLabs; host or cells: Sf9 insect cells, recombinant baculovirus
T1 sequence (P06493 whole entry): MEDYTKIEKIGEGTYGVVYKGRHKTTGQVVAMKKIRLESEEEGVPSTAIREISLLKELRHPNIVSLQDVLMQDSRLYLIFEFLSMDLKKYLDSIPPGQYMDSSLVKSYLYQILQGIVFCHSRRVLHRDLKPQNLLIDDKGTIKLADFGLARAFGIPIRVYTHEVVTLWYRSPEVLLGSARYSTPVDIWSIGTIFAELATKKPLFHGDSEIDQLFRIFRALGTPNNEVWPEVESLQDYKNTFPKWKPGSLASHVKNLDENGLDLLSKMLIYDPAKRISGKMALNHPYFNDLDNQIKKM
T1 sequence (P14635 whole entry partner): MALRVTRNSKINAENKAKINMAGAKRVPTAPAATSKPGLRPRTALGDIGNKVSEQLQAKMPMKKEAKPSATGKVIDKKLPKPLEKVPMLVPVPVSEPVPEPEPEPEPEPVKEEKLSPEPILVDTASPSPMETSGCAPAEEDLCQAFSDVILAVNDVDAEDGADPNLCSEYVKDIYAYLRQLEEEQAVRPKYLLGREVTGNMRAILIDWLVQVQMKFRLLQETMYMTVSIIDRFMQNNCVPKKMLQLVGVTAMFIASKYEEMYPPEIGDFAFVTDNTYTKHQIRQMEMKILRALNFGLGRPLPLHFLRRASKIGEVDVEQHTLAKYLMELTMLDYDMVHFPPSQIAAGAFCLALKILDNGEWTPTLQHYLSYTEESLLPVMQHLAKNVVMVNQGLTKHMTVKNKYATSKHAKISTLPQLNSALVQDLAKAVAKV
Method in brief: (§2)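 Wells were coated overnight with GST-Rb C-terminal fragment, then blocked. Compound (10 ug/ml final) and cyclin/CDK enzyme from baculovirus-infected Sf9 cells with 200 μM ATP reacted 1 h at 30° C. Ser795 phosphorylation was detected by ELISA at 450 nm.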

MCF-7 = assay: Cytotoxicity assay (SRB), MCF-7; assay type: cell-based; conditions: Homo sapiens, MCF7, 72 h, read-out: In Vitro Cellular Activity IC50 MCF-7
Method in brief: as §1

cyclin D1/cdk 4 enzyme = target: T2, cyclin D1/cdk 4 enzyme (Homo sapiens, UniProt P11802); assay: CDK4 ELISA kinase assay (phospho-Rb ser 795 detection); assay type: biochemical
T2 construct: made in house; host or cells: Sf9 insect cells, recombinant baculovirus
T2 sequence (P11802 whole entry, species assumed): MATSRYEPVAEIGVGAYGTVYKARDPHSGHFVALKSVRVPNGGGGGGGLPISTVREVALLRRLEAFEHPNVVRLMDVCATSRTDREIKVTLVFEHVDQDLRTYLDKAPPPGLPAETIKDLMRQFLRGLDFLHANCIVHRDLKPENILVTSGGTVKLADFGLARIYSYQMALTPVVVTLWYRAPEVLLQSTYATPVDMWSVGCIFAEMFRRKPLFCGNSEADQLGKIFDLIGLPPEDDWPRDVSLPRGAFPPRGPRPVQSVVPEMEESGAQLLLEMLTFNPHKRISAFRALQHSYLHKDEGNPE
T2 sequence (P24385 whole entry partner, species assumed): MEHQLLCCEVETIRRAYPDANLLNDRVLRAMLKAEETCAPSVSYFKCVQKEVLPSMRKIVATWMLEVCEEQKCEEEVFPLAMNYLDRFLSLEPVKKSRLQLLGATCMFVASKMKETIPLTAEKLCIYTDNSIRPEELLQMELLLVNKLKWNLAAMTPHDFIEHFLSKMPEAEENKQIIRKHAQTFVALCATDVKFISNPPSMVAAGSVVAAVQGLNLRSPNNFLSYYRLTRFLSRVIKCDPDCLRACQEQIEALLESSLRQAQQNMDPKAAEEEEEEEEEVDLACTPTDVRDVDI
Method in brief: as §2

HCT-116 = assay: Cytotoxicity assay (SRB), HCT-116; assay type: cell-based; conditions: Homo sapiens, HCT-116, 72 h, read-out: In Vitro Cellular Activity IC50 HCT116
Method in brief: as §1

cyclin E/CDK2 enzyme = target: T3, cyclin E/CDK2 enzyme (Homo sapiens, UniProt P24941); assay: CDK2 ELISA kinase assay (phospho-Rb ser 795 detection); assay type: biochemical
T3 construct: made in house; host or cells: Sf9 insect cells, recombinant baculovirus
Method in brief: as §2

[2] = dose i.v. 2 mg/kg, second value, (methocel/tween)
[3] = iv, 2 mg/kg, dose i.v. 2 mg/kg, read-out: aucinf obs (i.v.)
[4] = po, 50 mg/kg, dose po 50 mg/kg, read-out: aucinf obs (po)
[5] = In Vitro Enzyme Assays, read-out: CDK1 IC50
[6] = In Vitro Enzyme Assays, 200 μM ATP, read-out: CDK4 IC50
[7] = In Vitro Enzyme Assays, read-out: CDK2 IC50
[8] = In Vitro Enzyme Assay, cyclin B/CDK1, read-out: CDK1 IC50
[9] = In Vitro Enzyme Assay, cyclin D1/cdk 4, read-out: CDK4 IC50
[10] = In Vitro Enzyme Assay, cyclin E/CDK2, read-out: CDK2 IC50

Compound	Cl_obs ([1]; dose i.v. 2 mg/kg) [mL/min/kg]	Vss_obs ([1]; dose i.v. 2 mg/kg) [L/kg]	HL_Lambda_z ([1]; dose po 50 mg/kg) [h]	AUC(0-inf) [1, 3] [ng·h/mL]	AUC(0-inf) [1, 4] [ng·h/mL]	bioavailability ([1]; po, 50 mg/kg) [%]	IC50 (LoVo; LoVo cells, SRB, three days) [µM]	IC50 (BT474; BT474 cells, SRB, 6 days) [µM]	IC50 (cyclin B/CDK1 enzyme; [5]) [µM]	IC50 (MCF-7; MCF-7 cells, SRB, three days) [µM]	IC50 (cyclin D1/cdk 4 enzyme; [6]) [µM]	IC50 (HCT-116; HCT116 cells, SRB, three days) [µM]	IC50 (cyclin E/CDK2 enzyme; [7]) [µM]	IC50 (cyclin B/CDK1 enzyme; [8]) [µM]	IC50 (cyclin D1/cdk 4 enzyme; [9]) [µM]	IC50 (cyclin E/CDK2 enzyme; [10])	IC50 (LoVo; LoVo cells, 3 days, SRB) [µM]	IC50 (BT474; BT474 cells, 6 days, SRB) [µM]	IC50 (MCF-7; MCF-7 cells, 3 days, SRB) [µM]	melting point	other results
CCCOc1cnc(CNC=C2C(=O)NC(=O)c3ccc(I)cc32)cc1O [Example 364, 4-{[(4-Hydroxy-5-propoxy-pyridin-2-ylmethyl)-amino]-methylene}-6-iodo-4H-isoquinoline-1,3-dione]	3	0.2	1.8	11000	17200	6.3	0.52	0.34	25.3	0.88	0.03	0.73	1.6								Cl_obs [1, 2]: 2.1 mL/min/kg; Vss_obs [1, 2]: 0.1 L/kg; HL_Lambda_z ([1]; dose po 50 mg/kg, second value, (methocel/tween)): 2.4 h; AUC(0-inf) ([1]; iv, 2 mg/kg, dose i.v. 2 mg/kg, second value, (methocel/tween), read-out: aucinf obs (i.v.)): 15800 ng·h/mL; AUC(0-inf) ([1]; po, 50 mg/kg, dose po 50 mg/kg, second value, (methocel/tween), read-out: aucinf obs (po)): 5350 ng·h/mL; bioavailability ([1]; po, 50 mg/kg, second value, (methocel/tween)): 1.4%
O=C1NC(=O)c2ccc(I)cc2/C1=C/NCc1ccn(-c2ccsc2)c(=O)c1 [Example 539, (4Z)-6-Iodo-4-[({[2-oxo-1-(3-thienyl)-1,2-dihydropyridin-4-yl]methyl}amino)methylene]isoquinoline-1,3(2H,4H)-dione]	21	0.3	0.8	1560	44	0.12								> 50	0.29	41.5 µM					IC50 (LoVo): 0.16 µM; IC50 (BT474): 0.33 µM; IC50 (MCF-7): 0.24 µM; IC50 (HCT-116): 0.34 µM
O=C1NC(=O)c2ccc(I)cc2/C1=C/NCc1ccn(-c2ccccc2)c(=O)c1 [Example 517, (4Z)-6-Iodo-4-({[(2-oxo-1-phenyl-1,2-dihydropyridin-4-yl)methyl]amino}methylene)isoquinoline-1,3(2H,4H)-dione]	14	0.5	0.5	2360	39	0.07								29.6	0.27	> 50 µM and 41.5 µM	0.17	0.09	0.79		IC50 (HCT-116; HCT116 cells, 3 days, SRB): 0.25 µM
O=C1NC(=O)c2ccc(I)cc2/C1=C/NCc1ccc(-c2ccoc2)c(O)c1 [Example 506, 4-[(4-Furan-3-yl-3-hydroxy-benzylamino)-methylene]-6-iodo-4H-isoquinoline-1,3-dione]	79	6.7	2.6	423	5590	53										4.7 µM	0.41	0.29			
CCCOc1ccc(CN/C=C2\C(=O)NC(=O)c3ccc(I)cc32)cc1O [Example 178, (4Z)-4-{[(3-Hydroxy-4-propoxybenzyl)amino]methylene}-6-iodoisoquinoline-1,3(2H,4H)-dione]	33	1.5	6.1	999	360	14	0.74	0.62	13.9	1.8		0.65									
CCN1CCN(c2ccc(N/C=C3\C(=O)NC(=O)c4ccc(-c5ccoc5)cc43)nc2)CC1 [Example 481, (4Z)-4-({[5-(4-Ethylpiperazin-1-yl)pyridin-2-yl]amino}methylene)-6-(3-furyl)isoquinoline-1,3(2H,4H)-dione]														> 50	0.19	> 50 µM	0.96	0.6	1.1	256 to 257 °C	IC50 (HCT-116; HCT116 cells, 3 days, SRB): 0.88 µM
CC1CN(c2ccc(N/C=C3\C(=O)NC(=O)c4ccc(Br)cc43)cc2)CC(C)N1 (stereo not drawn) [Example 201]							1.4	1.4	> 50	1.7	4.1	1.1	> 50							229 to 230 °C	
CCCOc1cn(C)c(CN/C=C2\C(=O)NC(=O)c3ccc(I)cc32)cc1=O [Example 471, 6-Iodo-4-{[(1-methyl-4-oxo-5-propoxy-1,4-dihydro-pyridin-2-ylmethyl)-amino]-methylene}-4H-isoquinoline-1,3-dione]														> 50	0.007	28.7 µM	> 50	21.9	> 50	176 to 196 °C (dec.)	IC50 (HCT-116; HCT116 cells, 3 days, SRB): > 50 µM
COC1CCN(Cc2ccc(N/C=C3\C(=O)NC(=O)c4ccc(-c5ccc(F)cc5)cc43)cc2)CC1 [Example 395, (4Z)-6-(4-Fluorophenyl)-4-[({4-[(4-methoxypiperidin-1-yl)methyl]phenyl}amino)methylene]isoquinoline-1,3(2H,4H)-dione]									> 50		0.14		> 50				2.8	1.49	1.4	188 to 189 °C	IC50 (HCT-116; HCT116 cells, 3 days, SRB): 2.3 µM
O=C1NC(=O)c2ccc(Br)cc2/C1=C/c1cc(Br)c(O)c(Br)c1 [Example 94, (4Z)-6-Bromo-4-(3,5-dibromo-4-hydroxybenzylidene)isoquinoline-1,3(2H,4H)-dione]							6.4	2	> 50	2.3	9.4	3.4	> 50							167 to 168 °C	
